Laboratory results reported in ChEMBL document CHEMBL5661967, “Antitumor activity of HKI-272, an orally active, irreversible inhibitor of the HER-2 tyrosine kinase” (Cancer Res, 2004).
Activity calls are given as the source filed them. No cut-off for these calls is given here.

Key:
[1] = target: Cyclin-dependent kinase 4/cyclin D1 (Homo sapiens, UniProt P11802); test: Inhibition of recombinant CDK4/cyclin D1 (unknown origin) using protein as substrate; format: protein-complex assay
[2] = target: Cyclin-dependent kinase 2/cyclin E1 (Homo sapiens, UniProt P24941); test: Inhibition of recombinant CDK2/cyclin E (unknown origin) using protein as substrate; format: protein-complex assay
[3] = target: RAF proto-oncogene serine/threonine-protein kinase (Homo sapiens, UniProt P04049); test: Inhibition of recombinant c-Raf (unknown origin) using protein as substrate
Sequence of RAF proto-oncogene serine/threonine-protein kinase (P04049 whole entry, the tested form may be a part): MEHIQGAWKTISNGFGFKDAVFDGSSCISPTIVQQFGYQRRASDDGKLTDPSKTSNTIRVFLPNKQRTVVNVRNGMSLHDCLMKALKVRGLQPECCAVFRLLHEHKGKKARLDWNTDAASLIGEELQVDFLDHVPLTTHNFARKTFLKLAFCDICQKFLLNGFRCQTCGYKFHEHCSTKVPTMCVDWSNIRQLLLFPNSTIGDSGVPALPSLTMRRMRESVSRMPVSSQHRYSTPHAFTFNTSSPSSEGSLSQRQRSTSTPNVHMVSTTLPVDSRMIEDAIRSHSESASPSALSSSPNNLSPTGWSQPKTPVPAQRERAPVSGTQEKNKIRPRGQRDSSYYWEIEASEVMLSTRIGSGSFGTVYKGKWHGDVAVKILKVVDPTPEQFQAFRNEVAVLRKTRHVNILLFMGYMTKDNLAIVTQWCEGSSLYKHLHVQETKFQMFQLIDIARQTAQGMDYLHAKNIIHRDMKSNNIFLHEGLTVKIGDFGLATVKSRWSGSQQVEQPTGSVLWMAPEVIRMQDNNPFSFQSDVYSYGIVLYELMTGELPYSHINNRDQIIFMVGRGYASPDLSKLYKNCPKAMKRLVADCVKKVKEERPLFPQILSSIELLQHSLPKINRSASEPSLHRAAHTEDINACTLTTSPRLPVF

Homo sapiens [4] = species: Homo sapiens; test: Selectivity ratio of IC50 for recombinant KDR (unknown origin) to IC50 for recombinant N-terminal His6-tagged HER2 cytoplasmic domain (676 to 1255 residues)(unknown origin) expressed in baculovirus infected Sf9 insect cells
Homo sapiens [5] = species: Homo sapiens; test: Selectivity ratio of IC50 for recombinant Src (unknown origin) to IC50 for recombinant N-terminal His6-tagged HER2 cytoplasmic domain (676 to 1255 residues)(unknown origin) expressed in baculovirus infected Sf9 insect cells
SK-BR-3 = test: Antiproliferative activity against human SK-BR-3 cells measured after 2 days by sulforhodamine B assay; format: functional, cell-based; details: SK-BR-3, 48 h
A-431 [6] = test: Antiproliferative activity against human A-431 cells measured after 2 days by sulforhodamine B assay; format: functional, cell-based; details: A-431, 48 h
SW-620 = test: Antiproliferative activity against human SW620 cells measured after 2 days by sulforhodamine B assay; format: functional, cell-based; details: SW-620, 48 h
[7] = target: T1, Receptor tyrosine-protein kinase erbB-2 (Homo sapiens, UniProt P04626); test: Irreversible inhibition of HER2 autophosphorylation in human BT-474 cells at 1 uM incubated for 3 hrs followed by compound washout and further incubated for 5 hrs by Western blot analysis relative to control; format: cell-based
T1 sequence (P04626 whole entry): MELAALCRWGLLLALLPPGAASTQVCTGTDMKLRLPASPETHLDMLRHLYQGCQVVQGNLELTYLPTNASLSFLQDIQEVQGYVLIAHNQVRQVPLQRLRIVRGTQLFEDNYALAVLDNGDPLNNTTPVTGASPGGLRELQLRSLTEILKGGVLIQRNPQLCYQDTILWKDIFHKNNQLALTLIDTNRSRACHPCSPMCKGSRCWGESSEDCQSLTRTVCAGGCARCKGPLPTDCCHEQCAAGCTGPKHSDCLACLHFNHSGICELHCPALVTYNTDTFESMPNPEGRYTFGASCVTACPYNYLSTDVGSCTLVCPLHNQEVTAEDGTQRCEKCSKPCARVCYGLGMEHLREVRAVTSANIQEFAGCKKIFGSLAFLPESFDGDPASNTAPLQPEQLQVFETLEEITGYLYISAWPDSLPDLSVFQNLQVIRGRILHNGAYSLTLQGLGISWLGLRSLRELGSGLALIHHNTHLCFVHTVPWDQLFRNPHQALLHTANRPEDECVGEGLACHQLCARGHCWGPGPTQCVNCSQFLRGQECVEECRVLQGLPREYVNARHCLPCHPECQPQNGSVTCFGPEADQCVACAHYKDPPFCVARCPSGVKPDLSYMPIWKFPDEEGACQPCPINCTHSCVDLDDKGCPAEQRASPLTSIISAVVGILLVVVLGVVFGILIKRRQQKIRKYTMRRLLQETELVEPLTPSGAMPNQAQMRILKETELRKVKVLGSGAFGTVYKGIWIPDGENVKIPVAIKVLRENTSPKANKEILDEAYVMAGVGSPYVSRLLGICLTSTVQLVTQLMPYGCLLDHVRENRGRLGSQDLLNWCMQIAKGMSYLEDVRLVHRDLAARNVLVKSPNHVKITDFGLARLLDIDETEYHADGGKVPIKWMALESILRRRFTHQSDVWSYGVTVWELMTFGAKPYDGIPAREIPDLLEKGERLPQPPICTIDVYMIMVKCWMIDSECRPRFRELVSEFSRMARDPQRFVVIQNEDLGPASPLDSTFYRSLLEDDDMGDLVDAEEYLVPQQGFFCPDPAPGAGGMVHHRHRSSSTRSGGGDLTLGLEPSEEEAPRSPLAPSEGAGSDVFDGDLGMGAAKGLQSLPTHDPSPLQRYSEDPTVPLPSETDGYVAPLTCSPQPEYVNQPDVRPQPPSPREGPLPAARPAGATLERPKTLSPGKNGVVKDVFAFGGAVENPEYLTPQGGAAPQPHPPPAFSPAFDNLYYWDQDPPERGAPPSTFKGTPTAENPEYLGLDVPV

[8] = target: Epidermal growth factor receptor (Homo sapiens, UniProt P00533); test: Inhibition of EGF-induced EGFR phosphorylation in human A-431 cells at 1 uM incubated for 3 hrs by Western blot analysis relative to control; format: cell-based
Sequence of Epidermal growth factor receptor (P00533 whole entry): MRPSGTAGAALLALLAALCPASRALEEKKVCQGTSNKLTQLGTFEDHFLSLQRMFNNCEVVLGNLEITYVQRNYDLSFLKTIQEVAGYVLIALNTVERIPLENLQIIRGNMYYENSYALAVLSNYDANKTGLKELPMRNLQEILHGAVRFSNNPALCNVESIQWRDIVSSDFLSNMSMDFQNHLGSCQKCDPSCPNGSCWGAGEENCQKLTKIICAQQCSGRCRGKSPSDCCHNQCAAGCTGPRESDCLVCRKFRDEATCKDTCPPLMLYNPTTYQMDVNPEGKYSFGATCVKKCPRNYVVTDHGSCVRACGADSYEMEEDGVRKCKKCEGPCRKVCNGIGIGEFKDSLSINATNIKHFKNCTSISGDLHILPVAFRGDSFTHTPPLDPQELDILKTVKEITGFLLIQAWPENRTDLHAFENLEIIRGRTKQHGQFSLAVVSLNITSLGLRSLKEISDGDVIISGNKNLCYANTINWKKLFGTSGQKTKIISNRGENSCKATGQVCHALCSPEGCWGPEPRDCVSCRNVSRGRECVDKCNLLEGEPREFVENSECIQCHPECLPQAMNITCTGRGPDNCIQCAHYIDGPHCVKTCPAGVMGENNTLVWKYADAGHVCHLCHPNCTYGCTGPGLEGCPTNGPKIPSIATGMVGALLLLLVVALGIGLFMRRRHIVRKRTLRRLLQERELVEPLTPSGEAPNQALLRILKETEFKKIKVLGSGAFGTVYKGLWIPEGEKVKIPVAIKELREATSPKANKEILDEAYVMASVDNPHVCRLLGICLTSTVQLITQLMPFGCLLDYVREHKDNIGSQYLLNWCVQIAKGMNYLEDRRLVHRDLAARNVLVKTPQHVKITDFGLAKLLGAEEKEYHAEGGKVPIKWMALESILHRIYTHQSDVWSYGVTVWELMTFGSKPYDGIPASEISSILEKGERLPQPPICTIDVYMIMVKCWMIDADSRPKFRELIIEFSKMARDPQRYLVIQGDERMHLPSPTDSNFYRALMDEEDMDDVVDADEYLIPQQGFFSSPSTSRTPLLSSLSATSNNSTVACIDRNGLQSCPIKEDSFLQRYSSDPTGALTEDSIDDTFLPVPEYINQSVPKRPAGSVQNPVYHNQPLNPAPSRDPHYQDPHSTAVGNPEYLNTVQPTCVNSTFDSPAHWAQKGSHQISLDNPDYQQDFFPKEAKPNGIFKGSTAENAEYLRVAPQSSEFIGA

[9] = target: T1, Receptor tyrosine-protein kinase erbB-2; test: Inhibition of [14C]HKI-272 binding to HER2 in human BT-474 cells at 5 uM measured after 15 mins by fluorography; format: cell-based
[10] = target: T1, Receptor tyrosine-protein kinase erbB-2; test: Binding affinity to HER2 in human […] cells at 1 uM measured after 15 mins by immunoprecipitation assay; format: cell-based; details: BT-474
BT-474 [11] = test: Cell cycle arrest in human BT-474 cells assessed as down regulation of cyclin D1 expression incubated for 12 to 16 hrs by Western blot analysis; format: functional, cell-based
BT-474 [12] = test: Cell cycle arrest in human BT-474 cells assessed as up regulation of p27 expression at 1 to 10 nM incubated for 12 to 16 hrs by Western blot analysis; format: functional, cell-based; details: dose 1-10 nM, time 12-16 hrs
BT-474 [13] = test: Cell cycle arrest in human BT-474 cells assessed as accumulation of cells at Sub-G1 phase at 0.4 nM measured after 12 to 16 hrs by propidium iodide staining based flow cytometry (reference value: 8%); format: functional; details: time 12-16 hrs
BT-474 [14] = test: Cell cycle arrest in human BT-474 cells assessed as accumulation of cells at Sub-G1 phase at 1 nM measured after 12 to 16 hrs by propidium iodide staining based flow cytometry (reference value: 8%); format: functional; details: time 12-16 hrs
BT-474 [15] = test: Cell cycle arrest in human BT-474 cells assessed as accumulation of cells at S phase at 0.4 nM measured after 12 to 16 hrs by propidium iodide staining based flow cytometry (reference value: 21%); format: functional; details: time 12-16 hrs
BT-474 [16] = test: Cell cycle arrest in human BT-474 cells assessed as accumulation of cells at S phase at 1 nM measured after 12 to 16 hrs by propidium iodide staining based flow cytometry (reference value: 21%); format: functional; details: time 12-16 hrs
BT-474 [17] = test: Cell cycle arrest in human BT-474 cells assessed as accumulation of cells at S phase at 0.4 nM measured after 12 to 16 hrs by BrdUrd uptake assay (reference value: 26%); format: functional; details: time 12-16 hrs
BT-474 [18] = test: Cell cycle arrest in human BT-474 cells assessed as accumulation of cells at G2/M phase at 1 nM measured after 12 to 16 hrs by propidium iodide staining based flow cytometry (reference value: 11%); format: functional; details: time 12-16 hrs
NIH3T3 [19] = test: Antitumor activity against mouse 3T3 cells transfected with HER-2 oncogene implanted in athymic nude mouse assessed as tumor growth inhibition at 80 mg/kg, po administered daily for 10 days via gavage and measured on day 21 relative to control; format: functional; details: NIH3T3, 504 h, time 21 day, read-out: TGI
NIH3T3 [20] = test: Antitumor activity against mouse 3T3 cells transfected with HER-2 oncogene implanted in athymic nude mouse assessed as tumor growth inhibition at 40 mg/kg, po administered daily for 10 days via gavage and measured on day 14 relative to control; format: functional; details: NIH3T3, 336 h, time 14 day, read-out: TGI
BT-474 [21] = test: Antitumor activity against human BT-474 cells xenografted in athymic nude mouse assessed as tumor growth inhibition at 40 mg/kg, po administered daily for 20 days via gavage and measured on day 28 relative to control; format: functional; details: BT-474, 672 h, time 28 day, read-out: TGI
SK-OV-3 = test: Antitumor activity against human SK-OV-3 cells xenografted in athymic nude mouse assessed as tumor growth inhibition at 60 mg/kg, po administered daily for 20 days via gavage and measured on day 21 relative to control; format: functional; details: SK-OV-3, 504 h, time 21 day, read-out: TGI
A-431 [22] = test: Antitumor activity against human A-431 cells xenografted in athymic nude mouse assessed as tumor growth inhibition at 60 mg/kg, po administered daily for 10 days via gavage and measured on day 15 relative to control; format: functional; details: A-431, 360 h, time 15 day, read-out: TGI
A-431 [23] = test: Antitumor activity against human A-431 cells xenografted in athymic nude mouse assessed as tumor growth inhibition at 20 mg/kg, po administered daily for 10 days via gavage and measured on day 15 relative to control; format: functional; details: A-431, 360 h, time 15 day, read-out: TGI
MCF7 = test: Antitumor activity against human MCF7 cells xenografted in athymic nude mouse assessed as tumor growth inhibition up to 80 mg/kg, po administered daily for 20 days via gavage and measured on day 28 relative to control; format: functional; details: time 28 day
[24] = Toxicity in mouse 3T3 cells transfected with HER-2 oncogene implanted athymic nude mouse assessed as body weight loss at 20 to 80 mg/kg, po administered daily for 10 days; format: organism-based, NIH3T3; details: in vivo, 240 h, dose 20-80 mg/kg, time 10 day
[25] = Toxicity in human SK-OV-3 cells xenografted athymic nude mouse assessed as body weight loss at 10 to 60 mg/kg, po administered daily via gavage for 20 days; format: organism-based; details: in vivo, 480 h, dose 10-60 mg/kg, time 20 day
[26] = Toxicity in mouse 3T3 cells transfected with HER-2 oncogene implanted athymic nude mouse at 20 to 80 mg/kg, po administered daily for 10 days; format: organism-based, NIH3T3; details: in vivo, 240 h, dose 20-80 mg/kg, time 10 day
[27] = Toxicity in human BT-474 cells xenografted athymic nude mouse at 10 to 40 mg/kg, po administered daily via gavage for 20 days; format: organism-based; details: in vivo, 480 h, dose 10-40 mg/kg, time 20 day
[28] = Toxicity in human SK-OV-3 cells xenografted athymic nude mouse at 10 to 60 mg/kg, po administered daily via gavage for 20 days; format: organism-based; details: in vivo, 480 h, dose 10-60 mg/kg, time 20 day

Sequence of Cyclin-dependent kinase 4/cyclin D1 (P11802 whole entry): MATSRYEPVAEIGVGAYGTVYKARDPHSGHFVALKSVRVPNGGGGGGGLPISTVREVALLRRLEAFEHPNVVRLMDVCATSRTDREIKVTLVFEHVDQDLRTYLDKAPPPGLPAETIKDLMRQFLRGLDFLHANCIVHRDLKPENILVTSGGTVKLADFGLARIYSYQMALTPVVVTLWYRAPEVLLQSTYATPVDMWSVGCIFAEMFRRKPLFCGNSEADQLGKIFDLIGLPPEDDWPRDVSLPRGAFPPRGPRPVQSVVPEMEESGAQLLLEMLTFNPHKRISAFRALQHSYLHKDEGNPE
Sequence of Cyclin-dependent kinase 4/cyclin D1 (P24385 whole entry, further chain): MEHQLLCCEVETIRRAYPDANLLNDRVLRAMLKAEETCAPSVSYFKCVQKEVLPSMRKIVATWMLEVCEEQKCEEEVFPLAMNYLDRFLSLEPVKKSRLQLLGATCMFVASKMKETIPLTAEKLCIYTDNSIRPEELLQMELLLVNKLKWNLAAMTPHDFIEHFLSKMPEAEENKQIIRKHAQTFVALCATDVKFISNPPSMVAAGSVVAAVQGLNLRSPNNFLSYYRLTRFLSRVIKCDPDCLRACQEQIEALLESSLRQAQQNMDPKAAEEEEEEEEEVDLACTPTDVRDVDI

COc1cc2ncc(C#N)c(Nc3ccc(OCc4ccccn4)c(Cl)c3)c2cc1NC(=O)/C=C/CN(C)C
IC50 [1]: > 50000 nM
IC50 [2]: > 18000 nM
IC50 [3]: > 18000 nM
Ratio IC50 (Homo sapiens [4]): 14
Ratio IC50 (Homo sapiens [5]): 24
IC50 (SK-BR-3): 2 nM
IC50 (A-431 [6]): 81 nM
IC50 (SW-620): 690 nM
inhibition [7]: 97%
inhibition [8]: > 99%
inhibition [9]: Active
Activity [10]: Active
IC50 (BT-474 [11]): 9 nM
Activity (BT-474 [12]): Active
Activity (BT-474 [13]): 11%
Activity (BT-474 [14]): 7%
Activity (BT-474 [15]): 12%
Activity (BT-474 [16]): 10%
Activity (BT-474 [17]): 14%
Activity (BT-474 [18]): 14%
inhibition in vivo at 80 mg/kg (NIH3T3 [19]): 98%
inhibition in vivo at 40 mg/kg (NIH3T3 [20]): 98%
inhibition in vivo at 40 mg/kg (BT-474 [21]): 93%
inhibition in vivo at 60 mg/kg (SK-OV-3): 85%
inhibition in vivo at 60 mg/kg (A-431 [22]): 76%
inhibition in vivo at 20 mg/kg (A-431 [23]): 44%
TGI (MCF7): 28%
Activity [24]: Non-Toxic
Activity [25]: Non-Toxic
Activity [26]: Non-Toxic
Activity [27]: Non-Toxic
Activity [28]: Non-Toxic
